Reference: PubChem BioAssay (NCI)
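Tested at 5 concentrations; 48 h exposure; 96-well plates; endpoints linearly interpolated, else capped at highest concentration. TGI denotes the concentration required for complete inhibition of growth.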

Tests used:
Assay in all cases: growth of human tumour cells (NCI), 48 h
[1] = system: HL-60(TB) leukemia
[2] = system: HOP-62 NSCLC
[3] = system: MALME-3M melanoma
[4] = system: MDA-MB-231 breast
[5] = system: NCI-H226 lung
[6] = system: NCI/ADR-RES ovarian
[7] = system: OVCAR-4 ovarian
[8] = system: OVCAR-5 ovarian
[9] = system: OVCAR-8 ovarian
[10] = system: RPMI-8226 leukemia
[11] = system: SK-MEL-2 melanoma
[12] = system: U251 CNS
[13] = system: UACC-62 melanoma

| Structure (SMILES) | TGI [1] [µM] | TGI [2] [µM] | TGI [3] [µM] | TGI [4] [µM] | TGI [5] [µM] | TGI [6] [µM] | TGI [7] [µM] | TGI [8] [µM] | TGI [9] [µM] | TGI [10] [µM] | TGI [11] [µM] | TGI [12] [µM] | TGI [13] [µM] |
| --- | --- | --- | --- | --- | --- | --- | --- | --- | --- | --- | --- | --- | --- |
| COC(=O)C1(C)CCCC2(C)C3CCC4CC3(C=C4CO)CCC12 (stereo not drawn) | 43.9 | > 100 | > 100 | > 100 | > 100 | 75.5 | > 100 | > 100 | > 100 | 48.6 | > 100 | > 100 | > 100 |
| COC(=O)CC1(O)C(/C=C/c2ccccc2)C(C(=O)OC)C(=O)C(C(=O)OC)C1C(=O)OC (stereo not drawn) | > 100 | > 100 | > 100 | > 100 | > 100 | > 100 | > 100 | > 100 | > 100 | > 100 | > 100 | > 100 | > 100 |
| COc1cccc(C[C@H]2COC(=O)[C@]2(O)Cc2cccc(OC)c2)c1 | > 100 | > 100 | > 100 | > 100 | > 100 | > 100 | > 100 | > 100 | > 100 | > 100 | > 100 | > 100 | > 100 |
| Cc1ccc(S(=O)(=O)NC2=NS(=O)(=O)c3cc(C)c(Cl)cc3S2)cc1 | > 100 | > 100 | > 100 | > 100 | > 100 | > 100 | > 100 | > 100 | > 100 | > 100 | > 100 | > 100 | > 100 |
| CC(=O)N1C2=CCCC2(C)c2ccccc21 (stereo not drawn) | 83.6 | > 100 | > 100 | > 100 | > 100 | > 100 | > 100 | > 100 | > 100 | 45.6 | > 100 | > 100 | > 100 |
| Nc1ncc(CN2CCOCC2)c(-c2ccccc2O)n1 | > 100 | > 100 | > 100 | > 100 | > 100 | > 100 | > 100 | > 100 | > 100 | > 100 | > 100 | > 100 | > 100 |
| CCCCc1ccc(Nc2nc(N)c3ncn(COCCO)c3n2)cc1 | > 100 | 45.1 | 52.7 | 76.7 | > 100 | 71.7 | > 100 | > 100 | 92.6 | 94.2 | 37.5 | 66.4 | 38.5 |
| O=C(OC(/C=C/c1ccccc1)P1(=O)N(Cc2ccccc2)[C@@H]2CCCC[C@H]2N1Cc1ccccc1)c1ccccc1 (stereo partly drawn) | 7.43 | > 100 | > 75.5 | 30.3 | > 100 | > 100 | > 100 | > 100 | > 29.8 | 6.53 | 5.67 | > 100 | > 100 |
| COc1cc(/C=C2\CC3C4CC[C@H]5C[C@@H](O)CC[C@]5(C)C4CC[C@]3(C)C2=O)cc(OC)c1OC (stereo partly drawn) | 43.2 | 49.2 | 49.1 | > 100 | 86.1 | > 100 | 57.2 | > 100 | > 100 | 27.8 | 33.7 | 41.5 | 44.9 |
| COc1cc(C2c3cc4c(cc3OC(NCc3ccccc3)C2C)OCO4)cc(OC)c1OC (stereo not drawn) | 0.699 | > 64 | 0.671 | 2.06 | 7.33 | 0.723 | > 100 | > 100 | > 100 | 24.2 | > 66.6 | 21.2 | 14.1 |
| CC(C)CCCC(C)[C@H]1CC[C@H]2[C@@H]3CC[C@H]4C[C@@H](CCC=C(c5cc(Cl)c(O)c(C(=O)O)c5)c5cc(Cl)c(O)c(C(=O)O)c5)CC[C@]4(C)[C@H]3CC[C@]12C (stereo partly drawn) (tested in a mixture with another compound) | > 50 | > 50 | > 50 | > 50 | > 50 | > 50 | > 50 | > 50 | > 50 | > 50 | > 50 | > 50 | > 50 |
| CC1CC(C)(O)CC(C(O)CC2CC(=O)NC(=O)C2)C1=O (stereo not drawn) | 1.1 | 0.449 | 6.44 | 0.0651 | 0.764 | 5.87 | 0.87 | 9.21 | 2.89 | 0.564 | 2.68 | 7.9 | 0.62 |
| C/C1=C\CC/C(C)=C/C=C(/C(C)C)CC/C(C(=O)O)=C/CC1 | > 100 | > 100 | > 100 | > 100 | > 100 | > 100 | > 100 | > 100 | > 100 | 62 | 62.2 | > 100 | > 100 |
| COc1ccc2c(c1)N=C1CSC(c3c(Cl)cccc3[N+](=O)[O-])N1C2 (stereo not drawn) | 79.3 | > 100 | > 100 | > 100 | 84.6 | > 100 | > 100 | > 100 | > 100 | 84.6 | > 100 | > 100 | 48.1 |
| N#C/C(=C\c1ccc(Br)cc1)c1nc(-c2cc3ccccc3oc2=O)cs1 | > 50 | 20.1 | 27.6 | 20.6 | > 50 | 34.4 | > 50 | > 50 | > 50 | > 50 | > 50 | 20.1 | 23.7 |
| COC(=O)CCC(C)C1CCC2C3CCC4CC5CCC4(C)C3(O5)C(Br)C(Br)C12C (stereo not drawn) | > 100 | > 100 | > 100 | > 100 | > 100 | > 100 | > 100 | > 100 | > 100 | > 100 | > 100 | > 100 | > 100 |
